{"source": "paper PMC8003975", "about": "(Cancers, 2021)", "key": {"c-Met": {"tested_on": "c-Met", "assay": "Western blot of treated HNC cells", "assay_type": "cell-based, human", "details": "Cal27, JHU029 and JHU022 cells, 48 hr; 2% or 3% BME, 10 or 20 µg/mL M-I; vs vehicle control", "protocol": "(§1) Figure 2 Momordicine-I inhibited c-Met signaling in HNC cells. (A) Cal27, JHU029 […] cells were treated with either 2% BME or 10 µg/mL of M-I and JHU022 cells were treated with either 3% BME or 20 µg/mL dose of M-I. Cell lysates were prepared after 48 hr of treatment and subjected to Western blot analysis using specific antibodies. Representative Western blot images for c-Met expression in Cal27, JHU029 and JHU022 cells are shown. Membrane was reprobed with the antibody for actin as an internal control. (B) Representative Western blot image for phospho-STAT3 (pSTAT3 Tyr-705) and total STAT3 expression in Cal27 and JHU029 cells with BME or M-I treatment. Membrane was reprobed by actin as an internal control. Quantitative representation of Western blot band intensities (right panel). Small bar indicates standard error (* p < 0.05; *** p < 0.001). (C) Cal27 cells were treated with 2% BME or M-I (10 μg/mL) at indicated time points. (D) Cal27 cells were treated with control siRNA or siRNA to c-Met (si-Met) for 48 hr. Cell lysates (from panels c and D) were subjected to analyze by western blot for pSTAT3 or STAT3 using specific antibody. Membranes were reprobed by actin as internal control. Quantitative representation of Western blot band intensities (right panel). Small bar indicates standard error (*** p < 0.001).\n(§2) Bitter melon extract (BME) was prepared from the Chinese variety of young bitter melons (raw and green) as described previously. Briefly, BME was prepared by aqueous extraction from whole fruit without seeds using a household juicer at room temperature with subsequent centrifugation at 15000× g at 4 °C for 30 min. BME was stored at −80 °C for further analysis. Cal27 and JHU029 cells were treated with 2% BME and JHU022 cells were treated with 3% BME as described previously. The momordicine-I (>98% pure) was purchased from Chemfaces (Cat. No.: CFN92076; Hubei, China). The powder was dissolved in DMSO and added to the cells at different concentrations. Based on cytotoxicity data, Cal27 and JHU029 cells were treated with 10 µg/mL and JHU022 cells were treated with 20 µg/mL dose of M-I and incubated for 48 hr for further experiments. All the experiments were done at least in triplicate.\n(§3) Lysates from control, BME or M-I treated cells and tumors were prepared using 2× SDS sample buffer and subjected to western blot analysis using specific antibodies to c-Met (1: 500, Cell Signaling Technology, CST, Denvers, MA, USA,), phospho- STAT3 (pSTAT3-Tyr-705) (1:1000, CST), total STAT3 (1:1000, CST), c-Myc (1:1000, CST), survivin (1:500, Santa Cruz Biotechnology, SBT, Dallas, TX, USA) and cyclin D1 (1: 500, SBT). HRP conjugated anti-mouse or anti-rabbit secondary antibodies were purchased from Bio-Rad (Hercules, CA, USA). The blot was reprobed with HRP conjugated β-actin antibody (1:5000; SBT) to compare protein load in each lane. Densitometry analysis was done using Image J software (NIH, Bethesda, MD, USA)."}, "phospho-STAT3 (Tyr-705)": {"tested_on": "phospho-STAT3 (Tyr-705)", "assay": "Western blot of treated HNC cells", "assay_type": "cell-based, human", "protocol": "as §1, §2, §3"}, "total STAT3": {"tested_on": "total STAT3", "assay": "Western blot of treated HNC cells", "assay_type": "cell-based, human", "details": "for total STAT3 level, short term treatment: Cal27 cells, 2% BME or 10 μg/mL M-I", "protocol": "as §1, §2, §3"}, "c-Myc": {"tested_on": "c-Myc", "assay": "Western blot of treated HNC cells", "assay_type": "cell-based, human", "details": "Cal27 and JHU029 cells, 48 hr; 2% BME or 10 µg/mL M-I", "protocol": "(§4) Figure 3 Momordicine-I inhibits downstream of c-Met signaling in HNC cells. Representative Western blot image for c-Myc, survivin and cyclin D1 expression in Cal27 and JHU029 cells with treatment of BME or M-I. The same membrane used in panel A was reprobed. Actin was used as internal control. Quantitative representation of Western blot band intensities (right panel). Small bar indicates standard error (*** p < 0.001).\nas §2, with “triplicate. […]” for “triplicate.”"}, "cyclin D1": {"tested_on": "cyclin D1", "assay": "Western blot of treated HNC cells", "assay_type": "cell-based, human", "details": "Cal27 and JHU029 cells, 48 hr; 2% BME or 10 µg/mL M-I", "protocol": "as §4\nas §2, with “triplicate. […]” for “triplicate.”"}, "survivin": {"tested_on": "survivin", "assay": "Western blot of treated HNC cells", "assay_type": "cell-based, human", "details": "Cal27 and JHU029 cells, 48 hr; 2% BME or 10 µg/mL M-I", "experimental": "Bitter melon extract (BME) was prepared from the Chinese variety of young bitter melons (raw and green) as described previously [17]. Briefly, BME was prepared by aqueous extraction from whole fruit without seeds using a household juicer at room temperature with subsequent centrifugation at 15000× g at 4 °C for 30 min. BME was stored at −80 °C for further analysis. Cal27 and JHU029 cells were treated with 2% BME and JHU022 cells were treated with 3% BME as described previously [17, 21]. […] The powder was dissolved in DMSO and added to the cells at different concentrations. Based on cytotoxicity data, Cal27 and JHU029 cells were treated with 10 µg/mL and JHU022 cells were treated with 20 µg/mL dose of M-I and incubated for 48 hr for further experiments. All the experiments were done at least in triplicate.\nHRP conjugated anti-mouse or anti-rabbit secondary antibodies were purchased from Bio-Rad (Hercules, CA, USA). The blot was reprobed with HRP conjugated β-actin antibody (1:5000; SBT) to compare protein load in each lane. […]"}, "[1]": {"assay": "Toxicity study, 5 days, body weight and serum chemistries", "assay_type": "in vivo, C57Bl/6 male mice", "protocol": "For toxicity analysis, mice (n = 3) were given 20 mg/ kg of M-I twice a day or 30 mg/kg IP dose of M-I once a day by IP injection for five days. In parallel, there were untreated control (n = 3) and BME treated group (n = 3) for comparison. Behavior and body weight of mice were monitored daily. The body weight in all the mice was stable, with no drastic changes seen in any of the mice tested. We collected blood on day six, and serum chemistries related to liver and kidney function were examined.\nFor toxicity study, C57Bl/6 male mice were received either 30% BME through drinking water or 20 mg/kg of M-I twice a day or 30 mg/kg of M-I once a day by IP injection for 5 days. There were three mice in each group, including untreated control. Blood was collected on day 6, and serum was prepared. Serum parameters related to hepatotoxicity (total bilirubin, alanine transaminase, aspartate transaminase, and alkaline phosphatase) and nephrotoxicity (urea and creatinine) were performed."}, "[2]": {"assay": "Pharmacokinetic study, single dose IP or oral gavage", "assay_type": "in vivo, C57Bl/6 male mice", "details": "male C57Bl/6 mouse blood"}, "rat cardiac fibroblasts": {"tested_on": "rat cardiac fibroblasts", "details": "cited from earlier work"}}, "data": [{"smiles": "CC(C)=CC(O)CC(C)[C@H]1CC[C@@]2(C)[C@@H]3[C@@H](O)C=C4[C@@H](CC[C@H](O)C4(C)C)[C@]3(C=O)CC[C@]12C", "note": "(stereo partly drawn) [M-I, (3S, 7S, 8S, 9R, 10R, 13R, 14S, 17R) 3,7-dihydroxy-17-(4-hydroxy-6-methylhept-5-en-2-yl)-4,4,13,14-tetramethyl-2,3,7,8,10,11, 12,15,16,17-decahydro-1H-cyclopenta[a]phenanthrene-9-carbaldehyde]", "values": [{"measurement": "c-Met expression", "setting": "c-Met", "value": "significant reduction"}, {"measurement": "phospho-STAT3 (Tyr-705) expression", "setting": "phospho-STAT3 (Tyr-705); Cal27 and JHU029 cells, 48 hr, 2% BME or 10 µg/mL M-I", "value": "significant reduction"}, {"measurement": "pSTAT3 level, short term treatment", "setting": "phospho-STAT3 (Tyr-705); Cal27 cells, 15 min, 2% BME or 10 μg/mL M-I", "value": "inhibits"}, {"measurement": "total STAT3 level", "setting": "total STAT3; Cal27 and JHU029 cells, 48 hr, 10 µg/mL M-I", "value": "substantial reduction"}, {"measurement": "total STAT3 level, short term treatment", "setting": "total STAT3; 15 min", "value": "without affecting"}, {"measurement": "total STAT3 level, short term treatment", "setting": "total STAT3; 240 min", "value": "inhibited"}, {"measurement": "c-Myc expression", "setting": "c-Myc", "value": "significant inhibition"}, {"measurement": "cyclin D1 expression", "setting": "cyclin D1", "value": "significant inhibition"}, {"measurement": "survivin expression", "setting": "survivin", "value": "significant inhibition"}, {"measurement": "body weight", "setting": "[1]; M-I 20 mg/kg twice a day or 30 mg/kg once a day IP, or 30% BME in drinking water, five days", "value": "stable"}, {"measurement": "serum chemistries (total bilirubin, alanine transaminase, aspartate transaminase, alkaline phosphatase, creatinine, urea, glucose) versus untreated control", "setting": "[1]; blood on day six, M-I IP for five days or 30% BME in drinking water", "value": "comparable"}, {"measurement": "stability in mouse blood", "setting": "[2]", "value": "stable"}, {"measurement": "effect on high-glucose-induced cell proliferation and collagen synthesis", "setting": "rat cardiac fibroblasts", "value": "inhibitory effects"}]}]}
